Legend:
Rat FAAH = target: T1, Rat FAAH (Rattus norvegicus, UniProt P97612); test: Assay Method 2: FAAH assay, hydrolysis of 3H-anandamide by cell homogenate; format: biochemical; conditions: T84 or transfected SK-N-MC cell homogenate, 3H-AEA 80 nM, rt 1 h, average of results obtained
T1 construct: expressed in transfected cells
T1 sequence (P97612 1-579): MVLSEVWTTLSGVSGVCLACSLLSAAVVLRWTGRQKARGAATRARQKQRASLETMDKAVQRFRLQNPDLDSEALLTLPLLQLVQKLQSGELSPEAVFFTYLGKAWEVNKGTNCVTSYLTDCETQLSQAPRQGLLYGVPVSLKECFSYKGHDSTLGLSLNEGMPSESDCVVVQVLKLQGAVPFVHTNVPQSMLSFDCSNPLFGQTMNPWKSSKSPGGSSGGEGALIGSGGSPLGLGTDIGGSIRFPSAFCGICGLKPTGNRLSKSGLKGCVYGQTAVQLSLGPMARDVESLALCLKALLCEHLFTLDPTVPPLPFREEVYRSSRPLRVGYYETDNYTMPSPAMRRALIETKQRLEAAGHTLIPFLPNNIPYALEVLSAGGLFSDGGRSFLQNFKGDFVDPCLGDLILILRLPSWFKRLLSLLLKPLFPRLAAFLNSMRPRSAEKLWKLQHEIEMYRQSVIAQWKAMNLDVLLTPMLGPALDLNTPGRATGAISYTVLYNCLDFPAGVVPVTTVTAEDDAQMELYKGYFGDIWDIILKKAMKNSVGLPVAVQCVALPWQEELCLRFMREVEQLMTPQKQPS
Description: A. Transfection of Cells with Rat FAAH
(§1) A 10-cm tissue culture dish with a confluent monolayer of SK-N-MC cells was split 2 days (d) prior to transfection. Using sterile technique, the media was removed and the cells were detached from the dish by the addition of trypsin. One fifth of the cells were then placed onto a new 10-cm dish. Cells were grown in a 37° C. incubator with 5% CO2 in Minimal Essential Media Eagle with 10% Fetal Bovine Serum. After 2 d, cells were approximately 80% confluent. These cells were removed from the dish with trypsin and pelleted in a clinical centrifuge. The pellet was re-suspended in 400 μL complete media and transferred to an electroporation cuvette with a 0.4 cm gap between the electrodes. Supercoiled rat FAAH cDNA (1 μg) was added to the cells and mixed. The voltage for the electroporation was set at 0.25 kV, and the capacitance was set at 960 After electroporation, the cells were diluted into complete media (10 mL) and plated onto four 10-cm dishes. Because of the variability in the efficiency of electroporation, four different concentrations of cells were plated. The ratios used were 1:20, 1:10, and 1:5, with the remainder of the cells being added to the fourth dish. The cells were allowed to recover for 24 h before adding the selection media (complete media with 600 μg/mL G418). After 10 d, dishes were analyzed for surviving colonies of cells. Dishes with well-isolated colonies were used. Cells from individual colonies were isolated and tested.
(§2) T84 frozen cell pellets or transfected SK-N-MC cells (contents of 1×15 cm culture dishes) were homogenized in 50 mL of FAAH assay buffer (125 mM Tris, 1 mM EDTA, 0.2% Glycerol, 0.02% Triton X-100, 0.4 mM Hepes, pH 9). The assay mixture consisted of 50 μL of the cell homogenate, 10 μL of the test compound, and 40 μL of anandamide [1-^3H-ethanolamine] (^3H-AEA, Perkin-Elmer, 10.3 Ci/mmol), which was added last, for a final tracer concentration of 80 nM. The reaction mixture was incubated at rt for 1 h. During the incubation, 96-well Multiscreen filter plates (catalog number MAFCNOB50; Millipore, Bedford, Mass., USA) were loaded with 25 of activated charcoal (Multiscreen column loader, catalog number MACL09625, Millipore) and washed once with 100 μL of MeOH. Also during the incubation, 96-well DYNEX MicroLite plates (catalog number NL510410) were loaded with 100 μL of MicroScint40 (catalog number 6013641, Packard Bioscience, Meriden, Conn., USA). After the 1 h incubation, 60 μL of the reaction mixture were transferred to the charcoal plates, which were then assembled on top of the DYNEX plates using Centrifuge Alignment Frames (catalog number MACF09604, Millipore). The unbound labeled ethanolamine was centrifuged through to the bottom plate (5 min at 2000 rpm), which was preloaded with the scintillant, as described above. The plates were sealed and left at rt for 1 h before counting on a Hewlett Packard TopCount.
(§3) Results for compounds tested in these assays are summarized in Table 1, as an average of results obtained. Compounds were tested in free base, hydrochloride salt, and/or trifluoroacetic acid salt forms. Where activity is shown as greater than (>) a particular value, the value is the solubility limit of the compound in the assay medium or the highest concentration tested in the assay.

Human FAAH = target: T2, Human FAAH (Homo sapiens, UniProt O00519); test: Assay Method 1: FAAH assay, hydrolysis of 3H-anandamide by cell homogenate; format: biochemical; conditions: T84 or transfected SK-N-MC cell homogenate, 3H-AEA 80 nM, rt 1 h, average of results obtained
T2 construct: expressed in transfected cells; alternatively T84 frozen cell pellets
T2 sequence (O00519 1-579): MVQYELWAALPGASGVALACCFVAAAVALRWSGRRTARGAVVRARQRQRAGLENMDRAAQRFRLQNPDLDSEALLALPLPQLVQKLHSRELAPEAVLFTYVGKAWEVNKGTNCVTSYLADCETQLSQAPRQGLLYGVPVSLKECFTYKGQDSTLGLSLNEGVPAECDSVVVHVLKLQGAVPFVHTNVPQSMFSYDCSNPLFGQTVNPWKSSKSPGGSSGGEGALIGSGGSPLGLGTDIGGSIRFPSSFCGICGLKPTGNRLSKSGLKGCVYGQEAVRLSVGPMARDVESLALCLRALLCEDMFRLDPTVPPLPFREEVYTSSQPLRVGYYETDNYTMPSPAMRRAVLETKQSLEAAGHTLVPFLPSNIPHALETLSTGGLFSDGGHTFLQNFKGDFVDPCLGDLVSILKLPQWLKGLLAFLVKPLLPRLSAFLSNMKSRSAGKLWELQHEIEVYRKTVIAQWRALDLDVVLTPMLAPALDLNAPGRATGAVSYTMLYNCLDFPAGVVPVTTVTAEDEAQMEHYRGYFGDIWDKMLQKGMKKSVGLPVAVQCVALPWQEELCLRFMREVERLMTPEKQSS
Description: A. Transfection of Cells with Human FAAH
as §1, with “Supercoiled human” for “Supercoiled rat”, “960 μF.” for “960”
as §2, with “with 25 μL of activated” for “with 25 of activated”, “plates using” for “plates using Centrifuge Alignment Frames (catalog number MACF09604, Millipore). The unbound labeled ethanolamine was centrifuged through to the bottom plate (5 min at 2000 rpm), which was preloaded with the scintillant, as described above. The plates were sealed and left at rt for 1 h before counting on a Hewlett Packard TopCount.”
Centrifuge Alignment Frames (catalog number MACF09604, Millipore). The unbound labeled ethanolamine was centrifuged through to the bottom plate (5 min at 2000 rpm), which was preloaded with the scintillant, as described above. The plates were sealed and left at rt for 1 h before counting on a Hewlett Packard TopCount.
as §3

| Structure (SMILES) | IC50 (Rat FAAH) [nM] | IC50 (Human FAAH) [nM] |
| --- | --- | --- |
| O=C(Nc1cccnc1)N1CCCC(Cc2cnc3ccccc3c2)C1 (stereo not drawn) [Example 16, 3-Quinolin-3-ylmethyl-piperidine-1-carboxylic acid pyridin-3-ylamide] | > 10000 | 1000 |
| O=C(Nc1noc2ccccc12)N1CCCC(Cc2ccc(F)cc2)C1 (stereo not drawn) [Example 7, N-1,2-Benzisoxazol-3-yl-3-[(4-fluorophenyl)methyl]piperidine-1-carboxamide] | 152 | 2000 |
| O=C(Nc1cccnc1)N1CCCC(Cc2cccc(Oc3ccc(Cl)cc3)c2)C1 (single isomer, unassigned; (+)) [Example 13, (+)-3-[3-(4-Chloro-phenoxy)-benzyl]-piperidine-1-carboxylic acid pyridin-3-ylamide] | 31 | 19 |

— patent US8598356B2, “Heteroaryl-substituted urea modulators of fatty acid amide hydrolase” (Janssen Pharmaceutica NV, priority 2008, dated 2013)
